Data taken from patent US4322412A, “Anthracycline glycosides, their preparation, use and compositions thereof” (priority 1979, dated 1982).
Converted amounts (≈) assume the structure as drawn. Where a name gives a salt, the structure may show the parent alone. Read-outs that look alike come from different tables or passages of the source.

Columns and labels:
HeLa cells = test: Effect on HeLa Cells Cloning Efficiency In Vitro; type: cell-based; settings: for IC50: Homo sapiens, HeLa, read-out: ID50 (HeLa cells cloning efficiency); for cytotoxicity relative to parent compounds: in words, vs respective parent compounds (Table 1)
Method: ^(a) HeLa cells were exposed to the test compounds for 24 hours, then
plated. The number of colonies was evaluated 5 days later.

P-388 ascitic leukemia = test: Antitumor Activity on Ascitic P 388 Leukemia in Mice; type: in vivo; settings: for antitumor activity relative to parent compounds: at the maximal tolerated dose; for in vivo toxicity relative to parent compounds: vs parent compounds; for in vivo toxicity: even at a dose of 200 mg/kg; for antitumor activity relative to daunorubicin: vs daunorubicin in the same experiment
Method: Several of the new compounds of the invention were tested on HeLa cells cloning efficiency in vitro and on P-388 ascitic leukemia in mice, in comparison with daunorubicin and doxorubicin.
Antitumor Activity on Ascitic P 388 Leukemia in Mice
^(a) Mice were treated i.p. on day 1 after tumor cells inoculation.
^(b) Median survival time of treated mice/median survival time of
^(c) Evaluated on the basis of macroscopic autoptic findings.
^(d) Data of two separate experiments.

[1] = 24 hours exposure, then plated, colonies evaluated 5 days later

In the case of COc1cccc2c1C(=O)c1c(O)c3c(c(O)c1C2=O)C[C@@](O)(C(C)=O)C[C@@H]3O[C@H]1C[C@H](N)[C@H](O)[C@H](C)O1 [Daunorubicin . HCl, daunorubicin, reference compound], the IC50 (HeLa cells; 24 h) was 0.0072 µg/mL, the “Toxic Deaths (macroscopic autoptic findings)” value (shortened to “Toxic Deaths”) (P-388 ascitic leukemia; 2.9 mg/kg i.p. day 1, two separate experiments, first value) was 0/10 and the “Toxic Deaths” value (P-388 ascitic leukemia; 2.9 mg/kg i.p. day 1, two separate experiments, second value) was 0/8. For the same molecule, the “Toxic Deaths” value (P-388 ascitic leukemia; 4.4 mg/kg i.p. day 1, two separate experiments, first value) was 3/10, the “Toxic Deaths” value (P-388 ascitic leukemia; 4.4 mg/kg i.p. day 1, two separate experiments, second value) was 0/6 and the “Toxic Deaths” value (P-388 ascitic leukemia; 6.6 mg/kg i.p. day 1, two separate experiments, first value) was 8/10. The “Toxic Deaths” value (P-388 ascitic leukemia; 6.6 mg/kg i.p. day 1, two separate experiments, second value) was 0/6.

COc1cccc2c1C(=O)c1c(O)c3c(c(O)c1C2=O)C[C@@](O)(C(=O)CO)C[C@@H]3O[C@H]1C[C@H](N)[C@H](O)[C@H](C)O1 [Doxorubicin . HCl (adriamycin), doxorubicin, reference compound] was tested, and the IC50 (HeLa cells; 24 h) was 0.0095 µg/mL, the “T/C (median survival time of treated mice/control mice × 100)” value (P-388 ascitic leukemia; 4.4 mg/kg i.p. day 1) was 219% and the “Toxic Deaths” value (P-388 ascitic leukemia; 4.4 mg/kg i.p. day 1) was 0/8. For the same molecule, the “T/C (median survival time of treated mice/control mice × 100)” value (P-388 ascitic leukemia; 6.6 mg/kg i.p. day 1) was 223%, the “Toxic Deaths” value (P-388 ascitic leukemia; 6.6 mg/kg i.p. day 1) was 0/8 and the “T/C (median survival time of treated mice/control mice × 100)” value (P-388 ascitic leukemia; 10 mg/kg i.p. day 1) was 180%. For the same molecule, the “Toxic Deaths” value (P-388 ascitic leukemia; 10 mg/kg i.p. day 1) was 4/8.

In the case of COc1cccc2c1C(=O)c1c(cc3c(c1O)[C@@H](O[C@H]1C[C@H](N)[C@H](OC)[C@H](C)O1)C[C@](O)(C(C)=O)C3)C2=O [II, 4'-O-methyl-11-deoxy-daunorubicin], the IC50 (HeLa cells; [1]) was 0.066 µg/mL (≈ 0.126 µM), the “cytotoxicity relative to parent compounds” value (HeLa cells) was “less cytotoxic than their respective parent compounds” and the “T/C (median survival time of treated mice/control mice × 100)” value (P-388 ascitic leukemia; 25 mg/kg i.p. day 1) was 180%. The “Toxic Deaths” value (P-388 ascitic leukemia; 25 mg/kg i.p. day 1) was 0/9, the “T/C (median survival time of treated mice/control mice × 100)” value (P-388 ascitic leukemia; 50 mg/kg i.p. day 1) was 225% and the “Toxic Deaths” value (P-388 ascitic leukemia; 50 mg/kg i.p. day 1) was 1/9. For the same molecule, the “antitumor activity relative to parent compounds” value (P-388 ascitic leukemia; in words) was “comparable to that of the parent compounds” and the “in vivo toxicity relative to parent compounds” value (P-388 ascitic leukemia; in words) was “less toxic in vivo”.

In the case of COc1cccc2c1C(=O)c1c(cc3c(c1O)[C@@H](O[C@H]1C[C@H](N)[C@H](OC)[C@H](C)O1)C[C@](O)(C(=O)CO)C3)C2=O [III, 4'-O-methyl-11-deoxy-doxorubicin], the IC50 (HeLa cells; [1]) was 0.022 µg/mL (≈ 0.0406 µM), the “cytotoxicity relative to parent compounds” value (HeLa cells) was “less cytotoxic than their respective parent compounds” and the “T/C (median survival time of treated mice/control mice × 100)” value (P-388 ascitic leukemia; 6.6 mg/kg i.p. day 1) was 195%. The “Toxic Deaths” value (P-388 ascitic leukemia; 6.6 mg/kg i.p. day 1) was 0/8, the “T/C (median survival time of treated mice/control mice × 100)” value (P-388 ascitic leukemia; 10 mg/kg i.p. day 1) was 209% and the “Toxic Deaths” value (P-388 ascitic leukemia; 10 mg/kg i.p. day 1) was 0/8. The “T/C (median survival time of treated mice/control mice × 100)” value (P-388 ascitic leukemia; 15 mg/kg i.p. day 1) was 238%, the “Toxic Deaths” value (P-388 ascitic leukemia; 15 mg/kg i.p. day 1) was 0/7 and the “T/C (median survival time of treated mice/control mice × 100)” value (P-388 ascitic leukemia; 22.5 mg/kg i.p. day 1) was 214%. The “Toxic Deaths” value (P-388 ascitic leukemia; 22.5 mg/kg i.p. day 1) was 0/10, the “range of active and non-toxic doses” value (P-388 ascitic leukemia; in words) was “wide range of active and non-toxic doses” and the “antitumor activity relative to parent compounds” value (P-388 ascitic leukemia; in words) was “comparable to that of the parent compounds”. For the same molecule, the “in vivo toxicity relative to parent compounds” value (P-388 ascitic leukemia; in words) was “less toxic in vivo”.

COc1cccc2c1C(=O)c1c(cc3c(c1OC)[C@@H](O[C@H]1C[C@H](N)[C@H](OC)[C@H](C)O1)C[C@](O)(C(C)=O)C3)C2=O [IV, 4',6-di-O-methyl-11-deoxy-daunorubicin] was tested, and the IC50 (HeLa cells; [1]) was 1 µg/mL (≈ 1.85 µM).

COc1cccc2c1C(=O)c1c(O)c3c(c(OC)c1C2=O)C[C@@](O)(C(C)=O)C[C@@H]3O[C@H]1C[C@H](N)[C@H](O)[C@H](C)O1 [VI, 11-O-methyl-daunorubicin] was tested, and the IC50 (HeLa cells; [1]) was 0.4 µg/mL (≈ 0.739 µM), the “cytotoxicity relative to parent compounds” value (HeLa cells) was “markedly less cytotoxic than are their parent compounds” and the “T/C (median survival time of treated mice/control mice × 100)” value (P-388 ascitic leukemia; 100 mg/kg i.p. day 1) was 111%. The “Toxic Deaths” value (P-388 ascitic leukemia; 100 mg/kg i.p. day 1) was 0/4, the “T/C (median survival time of treated mice/control mice × 100)” value (P-388 ascitic leukemia; 200 mg/kg i.p. day 1) was 122% and the “Toxic Deaths” value (P-388 ascitic leukemia; 200 mg/kg i.p. day 1) was 0/3. The in vivo toxicity (P-388 ascitic leukemia; in words) was “not toxic” and the “antitumor activity relative to daunorubicin” value (P-388 ascitic leukemia; in words) was “comparable to that of daunorubicin”.

With COc1cccc2c1C(=O)c1c(O)c3c(c(OC)c1C2=O)C[C@@](O)(C(C)=O)C[C@@H]3O[C@H]1C[C@H](N)[C@H](OC)[C@H](C)O1 [VIII, 4',11-di-O-methyl-daunorubicin] the IC50 (HeLa cells; [1]) was 0.5 µg/mL (≈ 0.9 µM), the “cytotoxicity relative to parent compounds” value (HeLa cells) was “markedly less cytotoxic than are their parent compounds” and the “T/C (median survival time of treated mice/control mice × 100)” value (P-388 ascitic leukemia; 100 mg/kg i.p. day 1) was 111%. For the same molecule, the “Toxic Deaths” value (P-388 ascitic leukemia; 100 mg/kg i.p. day 1) was 0/6, the “T/C (median survival time of treated mice/control mice × 100)” value (P-388 ascitic leukemia; 200 mg/kg i.p. day 1) was 122% and the “Toxic Deaths” value (P-388 ascitic leukemia; 200 mg/kg i.p. day 1) was 0/6. The in vivo toxicity (P-388 ascitic leukemia; in words) was “not toxic” and the “antitumor activity relative to daunorubicin” value (P-388 ascitic leukemia; in words) was “comparable to that of daunorubicin”.
